Measured values from US20260297031A1, “HYDROXYLAMINE-BASED BCR-ABL1 INHIBITORS FOR TREATMENT OF CANCER” (University of Georgia Research Foundation, Inc., priority 2023, published 2026).
≈ marks a conversion by molar mass, not a printed value. Entries after “also recorded” stand apart in the source; their conditions may differ.

Assays:
Aqueous solubility = conditions: phosphate buffer, pH 7.4, aqueous buffer
Description: Solubility Determinations (Independently Performed by Pharmaron Inc., Ninqbo, CN)
Test compounds and control compounds (progesterone or diclofenac) were initially prepared as 10 mM DMSO stock solutions. […] After such time, plugs and stir sticks were removed and the samples from the solubility sample plate were transferred into the filter plate. All the samples were then filtered and 5 μL of filtrate was taken and added along with 5 μL of DMSO and 490 μL of a 1:1 (v/v) mixture of H2O and acetonitrile containing internal standard (100 nM alprazolam, 200 nM Caffeine and 100 nM tolbutamide) to the plate yielding a final concentration of 3 μM. The samples were then analyzed by LC-MS and diluted according to the peak shape with ultrapure water.
Filtrate was analyzed and quantified against a standard of known concentration using LC coupled with MS peak identification and quantitation. Solubility values of test compounds and progesterone were calculated as follows and are presented as the mean of n=2 replicates: […]

[1] = Plasma protein binding by equilibrium dialysis, human plasma; format: in vitro ADME
Description: (§1) Plasma Protein Binding by Equilibrium Dialysis (Independently Performed by Pharmaron Inc., Ninqbo, CN)
(§2) Initially, 1 mM solutions of test compounds and the control compound (Ketoconzaole) were prepared in DMSO. After this, dialysis membranes were soaked in ultrapure water for 60 min to separate strips, followed by 20% aq. ethanol for 20 min, and finally in a dialysis buffer for 20 min. […] After this, 597 μL of blank plasma solution followed by 3 μL of the working solutions of either test compounds or control compound were added to a new plastic plate or separate plastic tube and the solutions were vortexed at 1,000 rpm for 2 min. Immediately after this, 50 μL of spiked plasma solution suspension was transferred to a 96-well plate to act as T=0 control. The remaining samples were treated in the same manner, whereby all remaining spiked plasma solutions were added to the incubator for the duration of the study.
(§3) Cells were then loaded with 120 μL of the plasma samples and dialyzed against an equal volume of dialysis buffer (PBS). […] At the end of incubation, the lid was removed and 50 μL of post-dialysis samples were removed from both buffer and plasma solution chambers into a separate 96-well plate for analysis. The plasma solutions (50 μL) were then added to the buffer samples along with an equal volume of PBS (50 μL) to the collected plasma solution samples. The plate was shaken at 1,000 rpm for 2 min and 400 μL of acetonitrile containing an appropriate internal standard was added to precipitate protein and release compound. The samples were then vortexed at 1,000 rpm for an additional 10 min followed by centrifugation at 3,220 g for 30 min. Supernatant (250 μL) was then added to a new 96-well plate and centrifuged again at 3,220 g for 30 min and 100 μL of this supernatant was then added to a new 96-well plate for analysis. The samples were analyzed by LC-MS/MS and 100 μL of distilled water was added to each sample prior to analysis.
(§4) Concentrations of test compounds and control compound in buffer and plasma solution chambers was determined and percentages of test compounds and control compound bound using the following equations (mean of n=2 replicates): […]

[2] = Plasma protein binding by equilibrium dialysis, rat plasma; format: in vitro ADME
Description: as §1, §2
as §3, with “Supernatant (250 μL) was then added to a new 96-well plate and centrifuged again at 3,220 g for 30 min and 100 μL of this supernatant was then added to a new 96-well plate for analysis.” left out
as §4

[3] = Metabolic stability in human liver microsomes; format: in vitro ADME; conditions: human
Description: (§5) Metabolic Stability in Liver Microsomes (Independently Performed by Pharmaron Inc., Ninqbo, CN)
(§6) This experiment was carried out under two separate set of conditions: i) with Cofactors (NADPH), which consisted of adding 25 μL of 10 mM NADPH to the incubations, giving a final NADPH concentration of 1 mM, and ii) without Cofactors (NADPH), which consisted of adding 25 μL of 100 mM phosphate buffer to the incubations. Under both sets of conditions, the final concentration of microsomes were 0.5 mg/mL. […] Samples were then centrifuged at 3,220 g for 40 min and aliquots of 100 μL of the supernatant were mixed with 100 μL of ultra-pure H2O and analyzed by LC-MS/MS.
(§7) Peak areas were determined from extracted ion chromatograms. The slope value, k, was determined by linear regression of the natural logarithm of the remaining percentage of the parent drug vs incubation time curve.

[4] = Metabolic stability in rat liver microsomes; format: in vitro ADME; conditions: rat
Description: as §5, §6, §7

[5] = Metabolic stability in human hepatocytes
Description: Metabolic Stability in Hepatocytes (Independently Performed by Pharmaron Inc., Ninqbo, CN)
After thawing was complete, hepatocytes were transferred into a 50 mL conical tube containing thawing medium and the tube was then placed into a centrifuge and spun at 100 g for 10 min. […] Using AO/PI staining, cells were counted to determine the viable cell density. […] Subsequently, 2 μL of the 100 μM test compounds or control compound solutions was transferred into the respective wells of the 96-well non-coated plate to start the reaction. […] Aliquots of 100 μL of the supernatant were then diluted by 100 μL of ultra-pure water, and the mixture was analyzed by LC-MS/MS.
All calculations were carried out using Microsoft Excel. Peak areas were determined from extracted ion chromatograms. The in-vitro half-life (t1/2) of parent compound was determined by regression of the percent parent disappearance vs. time curve.

[6] = Metabolic stability in rat hepatocytes; format: in vitro ADME; conditions: rat
Description: All calculations were carried out using Microsoft Excel. Peak areas were determined from extracted ion chromatograms.

Molt-4 cells = experiment: In vitro CTG antiproliferative assay, Molt-4; format: cell-based; conditions: Homo sapiens; Molt-4 (BCR-ABL1−), 72 h
Description: In Vitro CTG Assay (Independently Performed By: Crown Bioscience, Taicanq, CN)
Cells listed in the table above were initially harvested during logarithmic growth period followed by re-suspension and counting using a Vi cell counter (cell viability was measured by trypan blue exclusion assay). Cells were then diluted and 90 μL cell suspensions were added to 96-well plates. Plates were then incubated overnight in a humidified incubator at 37° C. with 5% CO2. To(Time 0) plate was then taken by 10 μL of culture medium being added to each well followed by 50 μL CellTiter-Glo® Reagent being added. The contents were then mixed for 2 min on an orbital shake to facilitate cell lysis. Next, the plate was incubated at room temperature for 10 min to stabilize luminescent signal. Blackseal black sticker was placed to the bottom of each plate and the luminescence was recorded using EnVision multi label reader. Test compounds and 10 μL of each 10× compound working solutions was added according to the plate inoculation map. Plates were then placed back into the incubator and after 72 h, 50 μL CellTiter-Glo® was added to each well. Contents were then mixed for 2 min on an orbital shaker to facilitate cell lysis. The plate then was incubated at room temperature for 10 min to stabilize luminescent signal. Blackseal black sticker was placed to the bottom of each plate and the luminescence recorded using EnVision multi label reader.
Relative IC50 was calculated with a dose-response curve fitted using nonlinear regression model with a sigmoidal dose response on GraphPad Prism version 9.5.1. […] The formula for calculating survival rate was (n=3 replicates): […]

K562 cells = experiment: Cell viability assay, K562; format: cell-based
[7] = tested on: P-glycoprotein (P-gp) and/or breast cancer resistance protein (BCRP); conditions: cited from earlier work
[8] = LogD7.4 by shake flask method; conditions: octanol/phosphate buffer, pH 7.4

solubility kinetic at 2 h (Aqueous solubility): 14 µM (≈ 7.43 µg/mL)
% Bound ([1]; human plasma, 360 min, 5 µM): 95.47%
% Unbound ([1]; human plasma, 360 min, 5 µM): 4.52%
fu, plasma % ([1]; human, 5 μM, 360 min): 4.5%
fu, plasma % ([2]; 5 μM, 360 min): 7.2%
stability in liver microsomes, in words [3]: significant degradation
stability in liver microsomes, in words [4]: significant degradation
stability in hepatocytes, in words [5]: comparably enhanced stability
remaining at 0.5 min ([5]; hepatocytes): 100%
remaining at 0.5 h ([5]; hepatocytes): 79.3%
remaining at 1 h ([5]; hepatocytes): 54%
remaining at 2 h ([5]; hepatocytes): 20.7%
stability in hepatocytes, in words [6]: comparably enhanced stability
IC50 (Molt-4 cells): > 2000 nM
logD [8]: 3.1
Structure (SMILES): COc1cc(Nc2c(C#N)cnc3cc(OCCCN4CCN(C)CC4)c(OC)cc23)c(Cl)cc1Cl [Bosutinib, bosutinib, reference compound]
plasma protein binding, in words ([1]; human): comparable unbound plasma protein fraction
plasma protein binding, in words [2]: comparable unbound plasma protein fraction
antiproliferative activity, in words (K562 cells): picomolar activity
efflux transporter substrate (background) [7]: P-gp substrates; also recorded: potent substrates for efflux transporters
